Test results: publication PMC5505654 (European journal of medicinal chemistry, 2017)

Tests used:
[1] = biological target: AM2-S31N mutant of the A/M2 proteins (Influenza A virus, UniProt P0DOF5, S31N); assay type: biochemical; conditions: pH 5.5
A/WSN/33 (H1N1) virus = assay type: cell-based, influenza A virus

Compound: CC(C)[Si](c1ccc(CNC23CC4CC(CC(O)(C4)C2)C3)cc1)(C(C)C)C(C)C [Compound 5f]
- % AM2-S31N inhibition [1]: inactive
- A/WSN/33 EC50 (A/WSN/33 (H1N1) virus): inactive
